In the supplement of paper PMC10307832:

How the values were obtained:
Test in all cases: relative viability (nuclei count vs DMSO), 5 days (fraction); higher = more cells survive
Ispinesib + Alpelisib = compound: Cc1ccc(C(=O)N(CCCN)[C@@H](c2nc3cc(Cl)ccc3c(=O)n2Cc2ccccc2)C(C)C)cc1 [Ispinesib] + Cc1nc(NC(=O)N2CCC[C@H]2C(N)=O)sc1-c1ccnc(C(C)(C)C(F)(F)F)c1 [Alpelisib] (partner 2 µM)
Method in brief: (§1)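 A single step with final 0.05% Triton X-100, 1% formaldehyde and 1 ug/ml Hoechst fixed the cells and stained nuclei 5 days after treatment. Lung cancer cell lines in 1536-well plates had been treated by pin tool the day after seeding with one drug alone or a fixed anchor-drug dose plus five library-drug doses (not always all listed) in √10 steps, and nuclei were counted on 4× images. Relative viability is the ratio of nuclei in treated wells to nuclei in vehicle wells, taken as the median of duplicate plates.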

Ispinesib + Olaparib = compound: Cc1ccc(C(=O)N(CCCN)[C@@H](c2nc3cc(Cl)ccc3c(=O)n2Cc2ccccc2)C(C)C)cc1 [Ispinesib] + O=C(c1cc(Cc2n[nH]c(=O)c3ccccc23)ccc1F)N1CCN(C(=O)C2CC2)CC1 [Olaparib] (partner 8 µM)
Method in brief: as §1

Ispinesib + Palbociclib = compound: Cc1ccc(C(=O)N(CCCN)[C@@H](c2nc3cc(Cl)ccc3c(=O)n2Cc2ccccc2)C(C)C)cc1 [Ispinesib] + CC(=O)c1c(C)c2cnc(Nc3ccc(N4CCNCC4)cn3)nc2n(C2CCCC2)c1=O [Palbociclib] (partner 0.5 µM)
Method in brief: as §1

Linsitinib + Foretinib = compound: C[C@]1(O)C[C@@H](c2nc(-c3ccc4ccc(-c5ccccc5)nc4c3)c3c(N)nccn32)C1 [Linsitinib] + COc1cc2c(Oc3ccc(NC(=O)C4(C(=O)Nc5ccc(F)cc5)CC4)cc3F)ccnc2cc1OCCCN1CCOCC1 [Foretinib] (partner 0.25 µM)
Method in brief: as §1

Cell Line | relative viability (Ispinesib + Alpelisib; first compound 0.001 µM) | relative viability (Ispinesib + Alpelisib; first compound 0.003162 µM) | relative viability (Ispinesib + Alpelisib; first compound 0.01 µM) | relative viability (Ispinesib + Alpelisib; first compound 0.03162 µM) | relative viability (Ispinesib + Alpelisib; first compound 0.1 µM) | relative viability (Ispinesib + Olaparib; first compound 0.001 µM) | relative viability (Ispinesib + Olaparib; first compound 0.003162 µM) | relative viability (Ispinesib + Olaparib; first compound 0.01 µM) | relative viability (Ispinesib + Olaparib; first compound 0.03162 µM) | relative viability (Ispinesib + Olaparib; first compound 0.1 µM) | relative viability (Ispinesib + Palbociclib; first compound 0.001 µM) | relative viability (Ispinesib + Palbociclib; first compound 0.003162 µM) | relative viability (Ispinesib + Palbociclib; first compound 0.01 µM) | relative viability (Ispinesib + Palbociclib; first compound 0.03162 µM) | relative viability (Ispinesib + Palbociclib; first compound 0.1 µM) | relative viability (Linsitinib + Foretinib; first compound 0.01 µM) | relative viability (Linsitinib + Foretinib; first compound 0.03162 µM) | relative viability (Linsitinib + Foretinib; first compound 0.1 µM) | relative viability (Linsitinib + Foretinib; first compound 0.3162 µM) | relative viability (Linsitinib + Foretinib; first compound 1 µM)
HCC-366 | 0.733 | 0.393 | 0.535 | 0.47 | 0.135 | 0.355 | 0.434 | 0.372 | 0.476 | 0.0931 | 0.289 | 0.448 | 0.497 | 0.5 | 0.0937 | 0.95 | 0.996 | 0.907 | 0.932 | 0.956
EPLC-272H | 0.989 | 1.12 | 1.01 | 0.529 | 0.972 | 0.776 | 0.781 | 0.769 | 0.308 | 0.155 | 0.341 | 0.306 | 0.329 | 0.328 | 0.149 | 0.72 | 0.693 |  |  | 0.656
201T | 1.07 | 1.01 | 1.06 | 0.996 | 0.955 | 0.859 | 0.905 | 0.958 | 0.822 | 0.79 | 0.378 | 0.407 | 0.361 | 0.409 | 0.345 | 1.19 | 1.15 | 1.07 | 1.2 | 0.82
NCI-H3122 | 0.783 | 0.86 | 0.778 | 0.897 | 0.223 | 0.674 | 0.683 | 0.743 | 0.615 | 0.524 | 0.221 | 0.216 | 0.216 | 0.202 | 0.157 | 0.913 | 0.945 | 0.978 | 0.874 | 0.907
NCI-H838 | 1.17 | 1.06 | 1.1 | 1.04 | 0.426 | 0.914 | 0.875 | 1.11 | 0.668 | 0.203 | 0.23 | 0.23 | 0.262 | 0.212 | 0.137 | 0.996 | 0.855 | 0.894 |  | 0.716
NCI-H1755 | 1.09 | 1.03 | 1.16 | 0.815 | 0.547 | 0.909 | 0.928 | 0.963 | 0.987 | 0.759 | 0.467 | 0.451 | 0.457 | 0.431 | 0.463 | 0.864 | 0.892 | 0.956 | 0.865 | 0.8
HCC-15 | 0.92 | 0.955 | 1.06 | 0.83 | 0.358 | 0.683 | 0.759 | 0.917 | 0.831 | 0.445 | 0.518 | 0.847 | 0.899 | 0.644 | 0.418 | 1.08 | 1.01 | 1.04 |  | 0.809
NCI-H2087 | 0.992 | 1.2 | 1.28 | 1.02 | 0.159 | 0.708 | 0.694 | 0.801 | 0.545 | 0.145 | 0.206 | 0.224 | 0.262 | 0.172 | 0.112 | 1 | 0.995 | 1.01 | 0.813 | 0.967
LCLC-103H | 0.986 | 1.07 | 1.03 | 0.833 | 0.943 | 0.8 | 0.888 | 0.856 | 0.746 | 0.775 | 0.447 | 0.545 | 0.476 | 0.441 | 0.465 | 0.75 | 0.771 | 0.751 | 0.709 | 0.704
LK-2 | 1.33 | 0.97 | 1.23 | 1.07 | 0.412 | 0.795 | 0.814 | 0.698 | 0.632 | 0.329 | 0.687 | 0.821 | 0.824 | 0.743 | 0.188 | 1.27 | 1.24 | 1.21 | 1.08 | 1.22
HCC-78 | 0.358 | 0.393 | 0.38 |  | 0.268 | 0.876 | 0.82 | 0.887 | 0.704 | 0.59 | 0.427 | 0.586 | 0.516 | 0.473 | 0.351 | 0.545 | 0.567 | 0.471 | 0.44 | 0.39
NCI-H1666 | 1.07 | 0.936 | 0.988 | 0.567 | 0.388 | 0.756 | 0.801 | 0.702 | 0.713 | 0.663 | 0.736 | 0.63 | 0.679 | 0.705 | 0.52 | 0.94 | 1.05 | 0.933 | 0.758 | 0.852
EKVX | 0.978 | 0.879 | 0.923 | 0.944 | 0.273 | 0.83 |  | 1.05 | 0.831 | 0.317 | 0.456 |  | 0.409 | 0.463 | 0.295 | 0.988 | 0.358 | 0.779 | 0.252 | 0.686
COR-L 105 | 1.15 | 0.952 | 0.89 | 0.562 | 0.35 | 0.578 | 0.667 | 0.579 | 0.411 | 0.51 | 0.439 | 0.39 | 0.369 | 0.362 | 0.305 | 0.969 | 1.03 | 1.08 | 0.956 | 0.908
NCI-H322M | 0.866 | 0.889 | 0.846 | 0.467 | 0.66 | 0.804 | 0.81 | 0.855 | 0.786 | 0.549 | 0.5 | 0.505 | 0.494 | 0.463 | 0.426 | 1 | 0.77 | 0.989 | 0.916 | 0.923
HARA | 0.865 | 0.806 | 0.914 | 0.674 | 0.371 | 1.03 | 0.83 | 0.592 | 0.707 | 0.316 | 0.299 | 0.262 | 0.284 | 0.256 | 0.225 | 0.91 | 0.938 | 0.758 |  | 0.932
